Data taken from paper PMC4861662 (ChemMedChem, 2016).
Where two headings read alike, the source gives them in different places.

Assays:
[1] = container HP-β-CD; from PSD slope and S0 (equation 1); ref [20a],[21a]; cited from earlier work
[2] = container M2, ref [20a],[21a], cited from earlier work; for Initial slope of the PSD: 20 mM sodium phosphate buffered D2O, pD 7.4, rt; for Krel: referenced to the weakest binding container (generally HP-β-CD), TL = too large to be determined because slope ≈ 1
Phase solubility diagram [3] = conditions: container M2
Phase solubility diagram [4] = conditions: for Highest drug concentration achieved with container / Initial slope of the PSD / Ka of container•drug complex / Krel: container M2C2; for Initial slope of the PSD: 20 mM sodium phosphate buffered D2O, pD 7.4, rt; for Ka of container•drug complex: from PSD slope and S0 (equation 1); for Krel: referenced to the weakest binding container (generally HP-β-CD)
Phase solubility diagram [5] = conditions: for Highest drug concentration achieved with container / Initial slope of the PSD / Ka of container•drug complex: container SBE-β-CD; for Initial slope of the PSD: 20 mM sodium phosphate buffered D2O, pD 7.4, rt; for Ka of container•drug complex: from PSD slope and S0 (equation 1)
Phase solubility diagram [6] = conditions: for Initial slope of the PSD / Ka of container•drug complex / Krel: container M2C4; for Initial slope of the PSD: 20 mM sodium phosphate buffered D2O, pD 7.4, rt, Gel = gel formed; for Ka of container•drug complex: from PSD slope and S0 (equation 1); for Krel: referenced to the weakest binding container (generally HP-β-CD)
[7] = Inherent solubility of container by 1H NMR assay of saturated solution; assay type: physicochemical; conditions: SBE-β-CD
[8] = Inherent solubility of the drug; conditions: 20 mM sodium phosphate buffered D2O, pD 7.4, rt

inherent solubility of container [7] [mM]	Molecule	Ka of container•drug complex [1] [M⁻¹]	Initial slope of the PSD [2]	Highest drug concentration achieved with container (Phase solubility diagram [3]) [mM]	Highest drug concentration achieved with container (Phase solubility diagram [4]) [mM]	Highest drug concentration achieved with container (Phase solubility diagram [5]) [mM]	Initial slope of the PSD (Phase solubility diagram [4])	Ka of container•drug complex (Phase solubility diagram [4]) [M⁻¹]	Krel (Phase solubility diagram [4])	Initial slope of the PSD (Phase solubility diagram [5])	Krel [2]	Ka of container•drug complex (Phase solubility diagram [5]) [M⁻¹]	concentration of M2C4 above which gels form with drug (Phase solubility diagram [6]; M2C4 used as solubilizing agent)	average Krel relative to HP-β-CD (Phase solubility diagram [5]; SBE-β-CD versus HP-β-CD, averaged over drugs of the test set)	Initial slope of the PSD (Phase solubility diagram [6])	Ka of container•drug complex (Phase solubility diagram [6]) [M⁻¹]	Krel (Phase solubility diagram [6])	gel formation (Phase solubility diagram [4]; 68 mM container M2C2)	gel formation (Phase solubility diagram [6]; 68 mM container M2C4)	S0, inherent solubility of the drug [8] [mM]
	C#C[C@]1(O)CC[C@H]2[C@@H]3CCc4cc(O)ccc4[C@H]3CC[C@@]21C [Ethynyl Estradiol]	36000	1.1	10.5	33.6	131														
	CC[C@@]1(O)C(=O)OCc2c1cc1n(c2=O)Cc2cc3ccccc3nc2-1 [Camptothecin]		1.1	11.6	28.3	0	0.41	13000	1	0										
	CCCSc1ccc2nc(NC(=O)OC)[nH]c2c1 [Albendazole]	5400	0.48	4.48	2.78	3.94	0.035	14000	2.4	0.027	62	11000								
	N[C@@H](Cc1ccc(N(CCCl)CCCl)cc1)C(=O)O [Melphalan]		1.1	16.1	38.2	87.8	0.43		6.0/–	0.50										
	CCCCc1oc2ccccc2c1C(=O)c1cc(I)c(OCCN(CC)CC)c(I)c1 [Amiodarone]	1500	1.03				0.65	28000	19	0.60		23000	greater than 16 mM							
> 175	sulfobutylether-β-cyclodextrin [SBE-β-CD]													12						
	C(=C\c1ccccc1)/CN1CCN(C(c2ccccc2)c2ccccc2)CC1 [Cinnarizine]						0.26	25000	170	0.008		580								
	C[C@]12CC[C@@H]3c4ccc(O)cc4CC[C@H]3[C@@H]1CC[C@@H]2O [Estradiol]	26000	0.92				0.67	230000	9.1	0.59	51	170000			0.59	160000	6.5			
	O=C1CCc2ccc(OCCCCN3CCN(c4cccc(Cl)c4Cl)CC3)cc2N1 [Aripiprazole]		0.31	3.20	9.26	8.44	0.28	17000	7.7	0.048	8.8	2200								
	Cc1c(Cl)cccc1Nc1ccccc1C(=O)O [Tolfenamic acid]	4100	0.54	5.6	6.79	8.07	0.11	66000	16	0.11	150	64000								
	CC/C(=C(\c1ccccc1)c1ccc(OCCN(C)C)cc1)c1ccccc1 [Tamoxifen]	2400	0.10								3.9									
	C[C@@H](c1ncncc1F)[C@](O)(Cn1cncn1)c1ccc(F)cc1F [Voriconazole]			9.23	61.9	94.7	0.89	210000	29	0.53		30000			0.85	140000	19	no evidence of gel formation	no evidence of gel formation	
	O=C(NC1=CC(=O)[C@H]2O[C@H]2[C@H]1O)c1cc2ccccc2[nH]c1=O [PBS-1086]		0.89	12.5	16.5	0	0.70	510000	1	0	3.5									0.0045
	COc1cc2c(cc1O)CC[C@@H]1[C@@H]2CC[C@]2(C)[C@@H](O)CC[C@@H]12 [2-Methoxy estradiol]		0.79	6.42	34.1	35.9	0.49		12/–	0.21	47/–									
	COc1ccc2c(c1)c(CC(=O)O)c(C)n2C(=O)c1ccc(Cl)cc1 [Indomethacin]	2400	0.47	6.70	6.69	9.92	0.13	25000	11	0.23	67	51000								
